13 compounds from patent publication EP4722212A1, “NOVEL COMPOUND FOR INHIBITING PROTEIN KINASES AND PHARMACEUTICAL COMPOSITION COMPRISING SAME” (Magicbullettherapeutics Co., Ltd., priority 2023, dated 2024) can be followed below.

The subject of one assay is C4-2B. The experiment in a line: Cell line inhibition analysis (CCK-8, 72 h). It is filed as cell-based. The settings on record: read-out: Cell growth inhibition GI50 C4-2B. On the procedure:
(§1) C4-2B and 22Rv1 cells were purchased from ATCC and cultured according to the manufacturer's instructions. The cells were seeded in 96-well plates at 7×10^3cells/100 µl/well and allowed to attach for one day. After removing the culture medium, 90 µl/well of fresh culture medium was added, followed by addition of 10 µl/well of culture medium containing compounds at nine concentrations (0.076-500 µM) serially diluted 3-fold and DMSO control to achieve final concentrations of 0-50 µM, and then cultured for 72 hours in a 37 °C CO2 incubator. Cell proliferation after 72 hours was assessed by adding 10 µl/well of CCK-8 solution, orbital shaking for 30 seconds, then incubating at 37 °C CO2 incubator for 2 hours and measuring absorbance at 450 nm using a microplate reader. The measured absorbance values were corrected by subtracting the absorbance of wells containing only culture medium and CCK-8 solution, and GI50 values were calculated using GraphPad Prism 8 software.
(§2) Meanwhile, in a separate 96-well plate, cells were seeded at 7 × 10^3 cells/100 µl/well, allowed to attach for one day, CCK-8 solution was added, and absorbance was measured to establish the 'Growth (%) = 0' value.

In a further assay the target is T1, Src (Homo sapiens, UniProt P12931).
T1 construct: purchased Reaction Biology (RBC)
Put plainly: Enzyme activity inhibition (Reaction Biology). The class given is biochemical. On the procedure:
(§3) [* <10 nM: A, <100 nM: B, >100 nM: C]. [Table 7]

For the next assay, the target named is T2, ACK1 (Homo sapiens, UniProt Q07912).
T2 construct: purchased Reaction Biology (RBC)
Put plainly: Enzyme activity inhibition (Reaction Biology). The class given is biochemical. On the procedure:
as §3

Another assay addresses T3, BMX (Homo sapiens, UniProt P51813).
T3 construct: purchased Reaction Biology (RBC)
T3 sequence (P51813 1-675): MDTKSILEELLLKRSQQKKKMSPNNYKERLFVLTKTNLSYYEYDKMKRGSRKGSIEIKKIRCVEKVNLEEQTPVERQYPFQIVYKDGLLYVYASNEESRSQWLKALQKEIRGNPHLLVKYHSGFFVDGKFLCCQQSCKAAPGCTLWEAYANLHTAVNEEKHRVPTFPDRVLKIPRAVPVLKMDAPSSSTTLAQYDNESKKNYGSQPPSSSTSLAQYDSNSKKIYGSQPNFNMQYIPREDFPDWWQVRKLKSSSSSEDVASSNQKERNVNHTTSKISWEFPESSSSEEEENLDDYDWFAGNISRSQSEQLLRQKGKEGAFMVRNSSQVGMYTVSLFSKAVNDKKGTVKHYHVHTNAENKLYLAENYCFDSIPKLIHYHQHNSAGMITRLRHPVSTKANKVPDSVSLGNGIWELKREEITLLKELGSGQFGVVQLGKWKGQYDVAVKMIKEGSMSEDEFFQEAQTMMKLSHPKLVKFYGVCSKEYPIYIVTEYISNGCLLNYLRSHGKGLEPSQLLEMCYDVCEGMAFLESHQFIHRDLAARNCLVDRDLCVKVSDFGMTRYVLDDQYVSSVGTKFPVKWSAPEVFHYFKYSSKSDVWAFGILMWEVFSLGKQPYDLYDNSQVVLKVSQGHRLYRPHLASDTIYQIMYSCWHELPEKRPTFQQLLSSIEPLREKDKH
Put plainly: Enzyme activity inhibition (Reaction Biology). The class given is biochemical. On the procedure: as §3

For the next assay, the system named is 22Rv1. Put plainly: Cell line inhibition analysis (CCK-8, 72 h). The class given is cell-based. The settings on record: Homo sapiens; 22Rv1, 72 hours; read-out: Cell growth inhibition GI50 22Rv1. On the procedure:
as §1, §2

The next assay relates to SW620. The experiment in a line: Cell line inhibition analysis (CCK-8, 72 h). The class given is cell-based. The settings on record: Homo sapiens, SW-620; read-out: Cell growth inhibition GI50 SW620. On the procedure: as §1, §2
(§4) Furthermore, experiments were conducted on A172, A549, HCI-H460, AsPC-1, MIA-Paca-2, DLD-1, HCT-116, HT-29, SW480, SW620, MDA-MB-231, and SKOV3 cell lines using the same method, with results shown in Tables 9 and 10 below [* <1 µM: A, <5 µM: B, <10 µM: C, >10 µM: D].

In the next assay the test system is AsPC-1. The experiment in a line: Cell line inhibition analysis (CCK-8, 72 h). The class given is cell-based. To be noted: Homo sapiens, ASPC1; read-out: Cell growth inhibition GI50 AsPC-1. On the procedure:
as §1, §2, §4

A further assay concerns HCT-116. Put plainly: Cell line inhibition analysis (CCK-8, 72 h). It is filed as cell-based. The settings on record: Homo sapiens, read-out: Cell growth inhibition GI50 HCT-116. On the procedure:
as §1, §2, §4

For a further assay, the system named is SW480. The experiment in a line: Cell line inhibition analysis (CCK-8, 72 h). The class given is cell-based. The settings on record: Homo sapiens, read-out: Cell growth inhibition GI50 SW480. On the procedure: as §1, §2, §4

Some results are limits rather than exact numbers.

T1 sequence (P12931 whole entry): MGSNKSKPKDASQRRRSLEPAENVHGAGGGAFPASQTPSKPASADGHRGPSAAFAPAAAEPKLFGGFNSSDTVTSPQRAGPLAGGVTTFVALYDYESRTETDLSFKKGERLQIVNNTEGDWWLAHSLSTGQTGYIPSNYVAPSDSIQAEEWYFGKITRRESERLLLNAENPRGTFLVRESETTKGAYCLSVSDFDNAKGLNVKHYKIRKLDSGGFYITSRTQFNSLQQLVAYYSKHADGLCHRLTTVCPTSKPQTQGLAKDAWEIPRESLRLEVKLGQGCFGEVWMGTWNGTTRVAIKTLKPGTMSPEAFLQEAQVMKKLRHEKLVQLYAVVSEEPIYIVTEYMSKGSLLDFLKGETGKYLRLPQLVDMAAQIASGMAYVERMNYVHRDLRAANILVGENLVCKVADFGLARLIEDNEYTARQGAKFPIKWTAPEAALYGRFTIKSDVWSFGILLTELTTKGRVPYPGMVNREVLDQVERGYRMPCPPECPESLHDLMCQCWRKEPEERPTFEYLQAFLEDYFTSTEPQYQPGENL
T2 sequence (Q07912 whole entry): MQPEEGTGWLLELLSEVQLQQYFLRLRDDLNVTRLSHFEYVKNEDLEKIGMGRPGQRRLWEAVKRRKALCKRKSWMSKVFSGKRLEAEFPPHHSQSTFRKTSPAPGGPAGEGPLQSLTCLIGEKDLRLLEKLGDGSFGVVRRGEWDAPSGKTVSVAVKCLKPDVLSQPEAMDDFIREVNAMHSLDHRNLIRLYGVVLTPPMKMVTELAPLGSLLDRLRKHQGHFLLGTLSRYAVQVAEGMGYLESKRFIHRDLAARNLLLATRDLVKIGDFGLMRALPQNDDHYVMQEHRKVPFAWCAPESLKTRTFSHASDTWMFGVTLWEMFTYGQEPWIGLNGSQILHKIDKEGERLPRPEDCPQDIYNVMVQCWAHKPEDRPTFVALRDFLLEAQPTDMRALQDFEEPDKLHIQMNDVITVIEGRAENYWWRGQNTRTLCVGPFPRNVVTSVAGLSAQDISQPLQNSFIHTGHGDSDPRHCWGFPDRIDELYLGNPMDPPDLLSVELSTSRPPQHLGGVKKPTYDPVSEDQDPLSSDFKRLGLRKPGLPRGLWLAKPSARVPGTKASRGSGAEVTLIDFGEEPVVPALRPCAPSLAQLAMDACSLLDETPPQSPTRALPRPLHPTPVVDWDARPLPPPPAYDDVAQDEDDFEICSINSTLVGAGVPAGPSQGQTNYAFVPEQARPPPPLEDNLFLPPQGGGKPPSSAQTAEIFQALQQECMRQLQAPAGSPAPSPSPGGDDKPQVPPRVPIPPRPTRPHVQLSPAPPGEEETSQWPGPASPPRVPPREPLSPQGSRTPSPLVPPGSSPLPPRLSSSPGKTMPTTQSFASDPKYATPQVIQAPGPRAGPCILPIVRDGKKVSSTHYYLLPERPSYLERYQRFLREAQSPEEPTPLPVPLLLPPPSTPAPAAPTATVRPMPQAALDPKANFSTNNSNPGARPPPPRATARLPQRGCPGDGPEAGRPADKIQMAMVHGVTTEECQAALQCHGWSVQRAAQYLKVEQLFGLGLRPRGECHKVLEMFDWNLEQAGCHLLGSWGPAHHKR

The GI50 is the concentration giving 50% growth inhibition. In general, IC50 refers to the concentration that gives 50% inhibition. Low readings indicate inhibition by little substance, high ones a need for much substance. `Cc1cc(Nc2ncc3c(n2)C2(CC2)C(=O)N(c2cc(NC(=O)c4cccc(C(F)(F)F)c4)ccc2C)C3)n(C)n1` [Compound 1, N-(3-(2'-((1,3-dimethyl-1H-pyrazol-5-yl)amino)-7'-oxo-5'H-spiro[cyclopropane-1,8'-pyrido[4,3-d]pyrimidin]-6'(7'H)-yl)-4-methylphenyl)-3-(trifluoromethyl)benzamide]: the GI50 in the assay on C4-2B lay in the range of 1000 to 5000 nM. Further, the IC50 against Src, against ACK1 and against BMX was under 10 nM each time.

As for `Cc1ccc(NC(=O)c2ccc(F)c(C(F)(F)F)c2)cc1N1Cc2cnc(N)nc2C2(CC2)C1=O` [Compound 4, N-(3-(2'-amino-7'-oxo-5'H-spiro[cyclopropane-1,8'-pyrido[4,3-d]pyrimidine]-6'(7'H)-yl)-4-methylphenyl)-4-fluoro-3-(trifluoromethyl)benzamide], the GI50 in the assay with 22Rv1 and with C4-2B was 1000 to 5000 nM throughout.

In the case of `Cc1ccc(NC(=O)c2ccc(Cl)c(C(F)(F)F)c2)cc1N1Cc2cnc(N)nc2C2(CC2)C1=O` [Compound 5, N-(3-(2'-amino-7'-oxo-5'H-spiro[cyclopropane-1,8'-pyrido[4,3-d]pyrimidine]-6'(7'H)-yl)-4-methylphenyl)-4-chloro-3-(trifluoromethyl)benzamide], the GI50 with 22Rv1 and with C4-2B was 1000 to 5000 nM in each case.

On to `Cc1cn(-c2cc(C(=O)Nc3ccc(C)c(N4Cc5cnc(N)nc5C5(CC5)C4=O)c3)cc(C(F)(F)F)c2)cn1` [Compound 6, N-(3-(2'-amino-7'-oxo-5'H-spiro[cyclopropane-1,8'-pyrido[4,3-d]pyrimidine]-6'(7'H)-yl)-4-methylphenyl)-3-(4-methyl-1H-imidazol-1-yl)-5-(trifluoromethyl)benzamide], for which the GI50 in the assay with 22Rv1 is under 1000 nM; in the assay with C4-2B, 1000 to 5000 nM. Besides, the IC50 on Src, on ACK1 and against BMX was under 10 nM throughout.

On to `COc1cc(C(=O)Nc2ccc(C)c(N3Cc4cnc(N)nc4C4(CC4)C3=O)c2)cc(C(F)(F)F)c1` [Compound 19, N-(3-(2'-amino-7'-oxo-5'H-spiro[cyclopropane-1,8'-pyrido[4,3-d]pyrimidine]-6'(7'H)-yl)-4-methylphenyl)-3-methoxy-5-(trifluoromethyl)benzamide], for which the GI50 in the assay with 22Rv1 and in the assay with C4-2B was 1000 to 5000 nM in each case. In addition, the IC50 at Src, at ACK1 and at BMX was under 10 nM each time.

Take `COc1ccc(-c2cc(C(=O)Nc3ccc(C)c(N4Cc5cnc(N)nc5C5(CC5)C4=O)c3)cc(C(F)(F)F)c2)cc1` [Compound 20, N-(3-(2'-amino-7'-oxo-5'H-spiro[cyclopropane-1,8'-pyrido[4,3-d]pyrimidine]-6'(7'H)-yl)-4-methylphenyl)-4'-methoxy-5-(trifluoromethyl)-[1,1'-biphenyl]-3-carboxamide]: in the assay on C4-2B, the GI50 is under 1000 nM. Besides, the IC50 against Src, at ACK1 and at BMX was 10 to 100 nM in each case.

Regarding `Cc1ccc(NC(=O)c2cc(C(F)(F)F)ccc2Cl)cc1N1Cc2cnc(N)nc2C2(CC2)C1=O` [Compound 25, N-(3-(2'-amino-7'-oxo-5'H-spiro[cyclopropane-1,8'-pyrido[4,3-d]pyrimidine]-6'(7'H)-yl)-4-methylphenyl)-2-chloro-5-(trifluoromethyl)benzamide], the GI50 with C4-2B was over 10000 nM. The IC50 on Src is over 100 nM; at ACK1 it was 10 to 100 nM; against BMX it was over 100 nM.

`Cc1ccc(NC(=O)c2cc(Cl)cc(C(F)(F)F)c2)cc1N1Cc2cnc(N)nc2C2(CC2)C1=O` [Compound 26, N-(3-(2'-amino-7'-oxo-5'H-spiro[cyclopropane-1,8'-pyrido[4,3-d]pyrimidine]-6'(7'H)-yl)-4-methylphenyl)-3-chloro-5-(trifluoromethyl)benzamide]: the GI50 in the assay with 22Rv1 and with C4-2B was under 1000 nM in each case. Also, the IC50 at Src was under 10 nM; against ACK1, 10 to 100 nM; against BMX, under 10 nM.

On to `Cc1ccc(NC(=O)c2cc(N3CCOCC3)cc(C(F)(F)F)c2)cc1N1Cc2cnc(NC3CC3)nc2C2(CC2)C1=O` [Compound 28, N-(3-(2'-(cyclopropylamino)-7'-oxo-5'H-spiro[cyclopropane-1,8'-pyrido[4,3-d]pyrimidine]-6'(7'H)-yl)-4-methylphenyl)-3-morpholino-5-(trifluoromethyl)benzamide], for which the GI50 in the assay on C4-2B was 1000 to 5000 nM; with SW620, 1000 to 5000 nM; with AsPC-1 it was 5000 to 10000 nM; in the assay on HCT-116, under 1000 nM; in the assay with SW480 it was 1000 to 5000 nM. Besides, the figures for the IC50 against Src, at ACK1 and against BMX were over 100 nM, 10 to 100 nM and under 10 nM, respectively.

For `Cc1ccc(NC(=O)c2cc(N3CCOCC3)cc(C(F)(F)F)c2)cc1N1Cc2cnc(N)nc2C2(CC2)C1=O` [Compound 29, N-(3-(2'-amino-7'-oxo-5'H-spiro[cyclopropane-1,8'-pyrido[4,3-d]pyrimidine]-6'(7'H)-yl)-4-methylphenyl)-3-morpholino-5-(trifluoromethyl)benzamide], the GI50 in the assay with C4-2B lay within 1000 to 5000 nM. Further, the IC50 at Src is under 10 nM; against ACK1, 10 to 100 nM; against BMX, under 10 nM.

As to `COCCN(C)c1cc(C(=O)Nc2ccc(C)c(N3Cc4cnc(N)nc4C4(CC4)C3=O)c2)cc(C(F)(F)F)c1` [Compound 31, N-(3-(2'-amino-7'-oxo-5'H-spiro[cyclopropane-1,8'-pyrido[4,3-d]pyrimidine]-6'(7'H)-yl)-4-methylphenyl)-3-((2-methoxyethyl)(methyl)amino)-5-(trifluoromethyl)benzamide], in the assay with C4-2B, the GI50 was in the range of 1000 to 5000 nM. Also, the IC50 is 10 to 100 nM at Src, 10 to 100 nM at ACK1 and under 10 nM against BMX.

As for `Cc1ccc(NC(=O)c2cccc(C(F)(F)F)c2)cc1N1Cc2cnc(Nc3ccc(N4CCN(C)CC4)cc3)nc2C2(CC2)C1=O` [Compound 38, N-(4-methyl-3-(2'-((4-(4-methylpiperazin-1-yl)phenyl)amino)-7'-oxo-5'H-spiro[cyclopropane-1,8'-pyrido[4,3-d]pyrimidine]-6'(7'H)-yl)phenyl)-3-(trifluoromethyl)benzamide], the GI50 with SW620, with AsPC-1, with HCT-116 and with SW480 was under 1000 nM in each case.

With `Cc1ccc(NC(=O)c2cccc(C(F)(F)F)c2)cc1N1Cc2cnc(Nc3ccc(CN4CCN(C)CC4)cc3)nc2C2(CC2)C1=O` [Compound 43, N-(4-methyl-3-(2'-((4-((4-methylpiperazin-1-yl)methyl)phenyl)amino)-7'-oxo-5'H-spiro[cyclopropane-1,8'-pyrido[4,3-d]pyrimidine]-6'(7'H)-yl)phenyl)-3-(trifluoromethyl)benzamide], the GI50 with AsPC-1 and in the assay with HCT-116 was under 1000 nM each time.
